Assay results from DBAASP.
In brackets after ≈: the same amount, converted by molar mass. Several values for one entry are separate records, joined by “and”; a condition that tells them apart may be missing. Equal values may be shown once.

Key:
Assay in all cases: ≥ marks a high value that may be exact or a test limit, other limits are often not marked, values filed in µg/mL are converted to µM
[1] = tested on: Enterococcus faecalis ATCC 29212
[2] = tested on: Escherichia coli ATCC 25922
[3] = tested on: Pseudomonas aeruginosa ATCC 27853
[4] = tested on: Staphylococcus aureus ATCC 25923
[5] = tested on: Candida albicans ATCC 90028
[6] = tested on: Staphylococcus aureus ATCC 29213
[7] = tested on: Staphylococcus aureus ATCC 43300
[8] = tested on: Staphylococcus epidermidis ATCC 12228
Escherichia coli = tested on: Escherichia coli
Staphylococcus aureus = tested on: Staphylococcus aureus
Pseudomonas aeruginosa = tested on: Pseudomonas aeruginosa

Question: With CC[C@H](C)[C@H](NC(=O)CNC(=O)[C@H](CCCCN)NC(=O)[C@H](CC(C)C)NC(=O)[C@H](CCSC)NC(=O)[C@H](CC(N)=O)NC(=O)[C@H](CCCCN)NC(=O)[C@H](Cc1c[nH]c2ccccc12)NC(=O)[C@H](CC(C)C)NC(=O)[C@H](C)N)C(=O)NCC(=O)N[C@@H](CCCCN)C(=O)N[C@@H](CC(C)C)C(=O)N[C@@H](C)C(=O)NCC(=O)N[C@@H](CCC(N)=O)C(=O)N[C@@H](C)C(=O)N[C@@H](C)C(=O)N[C@@H](CC(C)C)C(=O)NCC(=O)N[C@@H](C)C(=O)N[C@H](C(=O)N[C@@H](CCCCN)C(=O)N[C@H](C(=O)N[C@@H](CC(C)C)C(=O)N[C@H](C(=O)NCC(=O)N[C@@H](C)C(=O)N[C@@H](CCC(=O)O)C(=O)N[C@@H](CO)C(=O)O)C(C)C)[C@@H](C)O)C(C)C [ALWKNMLKGIGKLAGQAALGAVKTLVGAES] as the compound, how does the MIC [1] read?
Answer: 22 µM (≈ 65.9 µg/mL)

Question: And the MIC [2]?
Answer: 1.3 µM (≈ 3.9 µg/mL)

Question: What about the MIC [3] of the same compound?
Answer: 5.4 µM (≈ 16.2 µg/mL)

Question: And the MIC [4]?
Answer: 2.7 µM (≈ 8.09 µg/mL)

Question: Which results are given for CC[C@H](C)[C@H](NC(=O)[C@@H]1CCCN1C(=O)[C@H](CC(C)C)NC(=O)[C@@H](N)Cc1ccccc1)C(=O)N[C@@H](CC(C)C)C(=O)NCC(=O)N[C@@H](CCCCN)C(=O)N[C@@H](CC(C)C)C(=O)N[C@@H](CC(C)C)C(=O)N[C@@H](CO)C(=O)NCC(=O)N[C@@H](Cc1ccccc1)C(=O)N[C@@H](CC(C)C)C(N)=O [FLPILGKLLSGFL]?
Answer: MIC [5]: ≥ 80 µM; MIC [2]: > 160 µM; MIC [4]: 10 µM (≈ 14.2 µg/mL)

Question: Which MIC [2] does the source give for CC[C@H](C)[C@H](NC(=O)CN)C(=O)NCC(=O)N[C@@H](C)C(=O)N[C@H](C(=O)N[C@@H](CC(C)C)C(=O)N[C@@H](CCCCN)C(=O)N[C@H](C(=O)N[C@@H](CC(C)C)C(=O)N[C@H](C(=O)N[C@H](C(=O)NCC(=O)N[C@@H](CC(C)C)C(=O)N[C@@H](CS)C(=O)N[C@@H](C)C(=O)N[C@@H](CC(C)C)C(=O)N[C@H](C(=O)N[C@@H](CO)C(=O)N[C@@H](Cc1c[nH]c2ccccc12)C(=O)N[C@H](C(=O)N[C@@H](CCCCN)C(=O)N[C@@H](CCCN=C(N)N)C(=O)N[C@@H](CCCCN)C(=O)N[C@@H](CCCN=C(N)N)C(=O)N[C@@H](CCC(N)=O)C(=O)N[C@@H](CCC(N)=O)C(=O)O)[C@@H](C)CC)[C@@H](C)CC)[C@@H](C)O)[C@@H](C)O)C(C)C)C(C)C [GIGAVLKVLTTGLCALISWIKRKRQQ] here?
Answer: 62.5 µM (≈ 178 µg/mL)

Question: What about the MIC [3] of the same compound?
Answer: 62.5 µM (≈ 178 µg/mL)

Question: And the MIC [6]?
Answer: 62.5 µM (≈ 178 µg/mL)

Question: And the MIC [7]?
Answer: 62.5 µM (≈ 178 µg/mL)

Question: With CC[C@H](C)[C@H](NC(=O)CNC(C)=O)C(=O)NCC(=O)N[C@@H](CCCCN)C(=O)N[C@@H](Cc1ccccc1)C(=O)N[C@@H](CC(C)C)C(=O)N[C@@H](Cc1cnc[nH]1)C(=O)N[C@@H](CO)C(=O)N[C@@H](C)C(=O)N[C@@H](CCCCN)C(=O)N[C@@H](CCCCN)C(=O)N[C@@H](Cc1ccccc1)C(=O)NCC(=O)N[C@@H](CCCCN)C(=O)N[C@@H](C)C(=O)N[C@@H](Cc1ccccc1)C(=O)N[C@H](C(=O)NCC(=O)N[C@@H](CCC(N)=O)C(=O)N[C@H](C(=O)N[C@@H](CCSC)C(=O)N[C@@H](CC(N)=O)C(=O)N[C@@H](CO)C(N)=O)[C@@H](C)CC)C(C)C [GIGKFLHSAKKFGKAFVGQIMNS] as the compound, how does the MIC [2] read?
Answer: 20 µM (≈ 50.1 µg/mL)

Question: What about the MIC [8] of the same compound?
Answer: 20 µM (≈ 50.1 µg/mL)

Question: Which results are given for CC[C@H](C)[C@H](NC(=O)CN)C(=O)N[C@@H](CCCCN)C(=O)N[C@@H](CCCCN)C(=O)N[C@@H](Cc1c[nH]c2ccccc12)C(=O)N1CCC[C@H]1C(=O)N[C@@H](Cc1cnc[nH]1)C(=O)N[C@@H](CCCCN)C(=O)N1CCC[C@H]1C(=O)N[C@@H](CCCCN)C(=O)N[C@@H](CCCCN)C(=O)N[C@@H](Cc1ccccc1)C(=O)NCC(=O)N[C@@H](CCCCN)C(=O)N[C@@H](CCCCN)C(=O)N[C@@H](Cc1ccccc1)C(=O)N[C@H](C(=O)N[C@@H](CCCCN)C(=O)N[C@@H](CCCCN)C(=O)N[C@H](C(=O)N[C@@H](CCCCN)C(=O)N[C@@H](CCCCN)C(=O)N[C@@H](CO)C(N)=O)[C@@H](C)CC)C(C)C [GIKKWPHKPKKFGKKFVKKIKKS]?
Answer: MIC [2]: 10 µM (≈ 27.7 µg/mL); MIC [8]: 5 µM (≈ 13.8 µg/mL)

Question: For CC[C@H](C)[C@H](NC(=O)CNC(=O)[C@H](CO)NC(=O)[C@H](CC(C)C)NC(=O)[C@@H](NC(=O)CN)[C@@H](C)CC)C(=O)N[C@@H](CC(C)C)C(=O)NCC(=O)N[C@@H](C)C(=O)NCC(=O)N[C@@H](CCCCN)C(=O)N[C@@H](CO)C(=O)N[C@@H](CC(C)C)C(=O)N[C@H](C(=O)N[C@H]1CSSC[C@@H](C(=O)O)NC(=O)[C@H](CC(C)C)NC(=O)CNC(=O)[C@H](CO)NC(=O)[C@H](CC(C)C)NC(=O)CNC1=O)C(C)C [GILSGILGAGKSLVCGLSGLC], which MIC (Escherichia coli) is on record?
Answer: 50 µM (≈ 95.8 µg/mL)

Question: What about the MIC (Staphylococcus aureus) of the same compound?
Answer: > 100 µM

Question: For CC[C@H](C)[C@H](NC(=O)CN)C(=O)N[C@@H](CCSC)C(=O)N[C@@H](CC(=O)O)C(=O)N[C@H](C(=O)N[C@H](C(=O)N[C@@H](CCCCN)C(=O)NCC(=O)N[C@@H](C)C(=O)N[C@@H](C)C(=O)N[C@@H](CCCCN)C(=O)N[C@@H](CC(=O)O)C(=O)N[C@@H](CC(C)C)C(=O)N[C@@H](C)C(=O)NCC(=O)N[C@@H](CCC(N)=O)C(=O)N[C@@H](CC(C)C)C(=O)N[C@@H](CC(C)C)C(=O)N[C@@H](CC(=O)O)C(=O)N[C@@H](CCCCN)C(=O)N[C@@H](CC(C)C)C(=O)N[C@@H](CCCCN)C(=O)N[C@H]1CSSC[C@@H](C(=O)O)NC(=O)[C@H](CCCCN)NC(=O)[C@H]([C@@H](C)O)NC(=O)[C@H]([C@@H](C)CC)NC(=O)[C@H](CCCCN)NC1=O)[C@@H](C)CC)[C@@H](C)O [GIMDTIKGAAKDLAGQLLDKLKCKITKC], which MIC [5] is on record?
Answer: ≥ 150 µM

Question: And the MIC [2]?
Answer: 75 µM (≈ 223 µg/mL)

Question: And the MIC [4]?
Answer: > 150 µM

Question: Which MIC [2] does the source give for NCC(=O)N[C@@H](CCCN=C(N)N)C(=O)N[C@@H](CCCN=C(N)N)C(=O)N1CCC[C@H]1C(=O)N[C@@H](CCCN=C(N)N)C(=O)N1CCC[C@H]1C(=O)N[C@@H](CCCN=C(N)N)C(=O)N1CCC[C@H]1C(=O)N[C@@H](CCCN=C(N)N)C(=O)N1CCC[C@H]1C(=O)N[C@@H](Cc1ccccc1)C(=O)N[C@@H](Cc1ccccc1)C(=O)N[C@@H](Cc1ccccc1)C(N)=O [GRRPRPRPRPFFF] here?
Answer: 160 µM (≈ 270 µg/mL)

Question: What about the MIC [3] of the same compound?
Answer: > 160 µM

Question: What about the MIC [6] of the same compound?
Answer: 40 µM (≈ 67.4 µg/mL)

Question: With CC[C@H](C)[C@H](N)C(=O)N[C@H](C(=O)N[C@@H](CCCN=C(N)N)C(=O)N[C@H](C(=O)N[C@@H](C)C(=O)N[C@H](C(=O)N[C@@H](C)C(=O)N[C@@H](CC(C)C)C(=O)N[C@@H](CCCN=C(N)N)C(=O)N[C@@H](CCCN=C(N)N)C(=O)N[C@H](C(=O)N[C@@H](CCCN=C(N)N)C(N)=O)[C@@H](C)CC)C(C)C)C(C)C)C(C)C [IVRVAVALRRIR] as the compound, how does the MIC (Pseudomonas aeruginosa) read?
Answer: 51.3 µM (≈ 73 µg/mL)

Question: What does the source list for CC(C)C[C@H](NC(=O)[C@H](CCCCN)NC(=O)CNC(=O)[C@H](C)NC(=O)[C@H](CC(C)C)NC(=O)[C@H](CCCCN)NC(=O)[C@H](C)NC(=O)[C@H](CC(C)C)NC(=O)[C@H](CCCCN)NC(=O)CNC(=O)[C@H](C)NC(=O)[C@H](Cc1c[nH]c2ccccc12)NC(=O)[C@H](CCCCN)NC(=O)[C@H](C)NC(=O)[C@H](CC(C)C)NC(=O)[C@H](CCCCN)NC(=O)CNC(=O)[C@H](C)NC(=O)[C@H](CC(C)C)NC(=O)[C@@H](N)CCCCN)C(=O)N[C@@H](C)C(N)=O [KLAGKLAKWAGKLAKLAGKLA]?
Answer: MIC (Escherichia coli): 3.74 µM (≈ 8 µg/mL); MIC (Pseudomonas aeruginosa): 7.49 µM (≈ 16 µg/mL); MIC (Staphylococcus aureus): 3.74 µM (≈ 8 µg/mL)

Question: Which results are given for CC[C@H](C)[C@H](NC(=O)CNC(=O)CNC(=O)[C@H](CC(C)C)NC(=O)[C@H](CC(C)C)NC(=O)[C@H](CO)NC(=O)CNC(=O)[C@@H](NC(=O)[C@H](CC(C)C)NC(=O)[C@@H](N)CC(N)=O)C(C)C)C(=O)N[C@@H](CC(C)C)C(=O)N[C@@H](CCCCN)C(=O)N[C@@H](CCCCN)C(N)=O [NLVGSLLGGILKK]?
Answer: MIC [2]: 457 µM (≈ 600 µg/mL); MIC [6]: > 534 µM

Question: What does the source list for CC[C@H](C)[C@H](NC(=O)[C@H](CCCCN)NC(=O)[C@H](C)NC(=O)[C@@H](N)CCC(N)=O)C(=O)N[C@@H](CCCN=C(N)N)C(=O)N[C@H](C(=O)N[C@@H](CCCN=C(N)N)C(=O)N[C@@H](CC(C)C)C(=O)N[C@@H](CO)C(=O)N[C@@H](C)C(=O)O)C(C)C [QAKIRVRLSA]?
Answer: MIC [2]: 112 µM (≈ 128 µg/mL); MIC [3]: 28 µM (≈ 32 µg/mL); MIC [6]: > 56.1 µM

Question: With NCCCC[C@H](NC(=O)[C@H](CCCCN)NC(=O)[C@H](CCCN=C(N)N)NC(=O)[C@H](CCCN=C(N)N)NC(=O)[C@H](Cc1c[nH]c2ccccc12)NC(=O)[C@H](Cc1c[nH]c2ccccc12)NC(=O)[C@H](CCCN=C(N)N)NC(=O)[C@H](CCCCN)NC(=O)[C@H](CCCCN)NC(=O)[C@@H](N)CCCN=C(N)N)C(N)=O [RKKRWWRRKK] as the compound, how does the MIC (Escherichia coli) read?
Answer: 3 µM and 6 µM

Question: What about the MIC [4] of the same compound?
Answer: 3 µM and 6 µM

Question: For CC(C)C[C@H](NC(=O)[C@H](C)NC(=O)[C@H](Cc1ccc(O)cc1)NC(=O)[C@H](CC(C)C)NC(=O)[C@H](CCCN=C(N)N)NC(=O)[C@H](C)NC(=O)[C@H](CC(C)C)NC(=O)[C@H](CO)NC(=O)[C@H](C)NC(=O)[C@H](CC(C)C)NC(=O)[C@H](CC(=O)O)NC(=O)[C@H](CCCN=C(N)N)NC(=O)[C@H](CCCN=C(N)N)NC(=O)[C@H](CCCN=C(N)N)NC(=O)[C@H](CCC(=O)O)NC(=O)[C@H](CCC(=O)O)NC(=O)[C@H](CO)NC(=O)[C@@H](NC(=O)[C@H](CCC(N)=O)NC(=O)[C@H](Cc1ccc(O)cc1)NC(=O)[C@@H](N)Cc1ccc(O)cc1)C(C)C)C(=O)N[C@@H](C)C(=O)N[C@@H](CCCN=C(N)N)C(N)=O [YYQVSEERRRDLASLARLYALAR], which MIC [2] is on record?
Answer: > 250 µM

Question: And the MIC [6]?
Answer: > 250 µM
